From patent US20240336572A1, “SUBSTITUTED INDAZOLE PROPIONIC ACID DERIVATIVE COMPOUNDS AND USES THEREOF” (Pfizer Inc., priority 2023, published 2024) come the findings set out here.

Broadly, the EC50 is the midpoint of the concentration-response curve. What is called Emax is the greatest response seen or fitted, relative to the assay's reference.

The target in assay [1] is T1, AMPK 111 (Homo sapiens, UniProt Q13131+Q9Y478).
T1 construct: open reading frames encoding the full-length α1, β1 and δ1 subunits of human AMPK; made in house; host or cells: E. coli BL21-CodonPlus (DE3)-RIPL, pET-14b
The experiment in a line: Biochemical profiling of AMPK activators by AMPK111 (HTRF/TR-FRET assay, SAMS peptide, PP2A dephosphorylation protection). The following applies: for EC50: phosphorylated AMPK 111 (α1β1δ1 as printed), 11 point dilution, duplicate, 4-parameter fit; for Emax: phosphorylated AMPK 111, maximal activation. The method, then:
(§1) The biochemical EC50 (half-maximal concentration required for full activation) of compounds for the activation of AMPK was evaluated by HTRF assay using LANCE Ultra ULight-Acetyl-CoA Carboxylase (SAMS) peptide (commercially available, Perkin Elmer catalog TRF0133-M).
Following a fifteen-minute room temperature incubation, 5 μL of 30 nM protein phosphatase PP2A (isolation detailed above) diluted in the assay buffer was added to the plate, to dephosphorylate pThr172 of AMPK. […] The reaction was terminated after 60 minutes incubation at room temperature, by the addition of 5 μL of stop and detection cocktail, which consisted of 1× Perkin Elmer Lance buffer (Perkin Elmer catalog number CR97-100), 40 mM EDTA (Thermo Fisher catalog number BP2482-100), and 2 nM Eu-anti-Acetyl CoA Carboxylase [pSer70] antibody (Perkin Elmer, TRF0208-M).

In assay [2] the target is T2, AMPK 221 (Homo sapiens, UniProt O43741+P54646).
T2 construct: open reading frames encoding the full-length α2, β2 and δ1 subunits of human AMPK; made in house; host or cells: E. coli BL21-CodonPlus (DE3)-RIPL, pET-14b
The experiment in a line: Biochemical profiling of AMPK activators by AMPK221 (HTRF/TR-FRET assay, SAMS peptide, PP2A dephosphorylation protection). Particulars: for EC50: phosphorylated AMPK 221 (α2β2δ1), 11 point dilution, duplicate, 4-parameter fit; for Emax: phosphorylated AMPK 221, maximal activation. The method, then:
as §1
The reaction was terminated after 60 minutes incubation at room temperature by the addition of 5 μL of stop and detection cocktail, which consisted of 1× Perkin Elmer Lance buffer (Perkin Elmer catalog number CR97-100), 40 mM EDTA (Thermo Fisher catalog number BP2482-100), and 2 nM Eu-anti-Acetyl CoA Carboxylase [pSer70] antibody (Perkin Elmer, TRF0208-M). Plates were spun at 1000 RPM, 10 seconds.

T2 sequence (P54646 whole entry): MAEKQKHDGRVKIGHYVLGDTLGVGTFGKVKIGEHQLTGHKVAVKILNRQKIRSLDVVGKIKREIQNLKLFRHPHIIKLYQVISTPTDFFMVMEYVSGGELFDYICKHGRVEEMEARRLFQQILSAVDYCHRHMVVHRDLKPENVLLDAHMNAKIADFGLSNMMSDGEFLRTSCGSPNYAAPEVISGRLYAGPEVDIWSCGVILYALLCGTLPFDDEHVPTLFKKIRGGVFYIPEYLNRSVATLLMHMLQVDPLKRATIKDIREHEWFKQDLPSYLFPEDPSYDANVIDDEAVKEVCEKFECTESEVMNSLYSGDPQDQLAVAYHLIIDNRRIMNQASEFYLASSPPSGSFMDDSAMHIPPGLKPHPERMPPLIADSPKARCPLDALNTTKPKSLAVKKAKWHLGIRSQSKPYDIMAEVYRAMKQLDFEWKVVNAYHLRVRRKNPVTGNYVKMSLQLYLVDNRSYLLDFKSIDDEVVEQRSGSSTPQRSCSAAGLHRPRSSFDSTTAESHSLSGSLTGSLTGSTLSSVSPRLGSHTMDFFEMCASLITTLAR
T2 sequence (O43741 whole entry): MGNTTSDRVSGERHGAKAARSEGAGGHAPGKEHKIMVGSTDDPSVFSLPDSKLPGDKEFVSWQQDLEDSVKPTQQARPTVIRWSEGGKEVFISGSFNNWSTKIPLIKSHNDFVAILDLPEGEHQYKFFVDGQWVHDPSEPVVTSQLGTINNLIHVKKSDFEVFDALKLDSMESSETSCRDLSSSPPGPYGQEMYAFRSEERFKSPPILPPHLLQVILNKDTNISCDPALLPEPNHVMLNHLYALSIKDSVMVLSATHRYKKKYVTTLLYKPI
T2 sequence (P54619 whole entry partner): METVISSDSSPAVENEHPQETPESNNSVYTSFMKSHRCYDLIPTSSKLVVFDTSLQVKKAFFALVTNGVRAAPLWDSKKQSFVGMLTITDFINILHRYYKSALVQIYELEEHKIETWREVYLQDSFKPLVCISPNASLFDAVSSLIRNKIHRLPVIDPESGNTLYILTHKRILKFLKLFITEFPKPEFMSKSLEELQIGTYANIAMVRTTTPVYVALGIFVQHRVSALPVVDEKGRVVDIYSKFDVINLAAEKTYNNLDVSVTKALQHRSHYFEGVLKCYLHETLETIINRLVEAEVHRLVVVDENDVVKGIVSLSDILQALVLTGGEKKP
T1 sequence (Q13131 whole entry): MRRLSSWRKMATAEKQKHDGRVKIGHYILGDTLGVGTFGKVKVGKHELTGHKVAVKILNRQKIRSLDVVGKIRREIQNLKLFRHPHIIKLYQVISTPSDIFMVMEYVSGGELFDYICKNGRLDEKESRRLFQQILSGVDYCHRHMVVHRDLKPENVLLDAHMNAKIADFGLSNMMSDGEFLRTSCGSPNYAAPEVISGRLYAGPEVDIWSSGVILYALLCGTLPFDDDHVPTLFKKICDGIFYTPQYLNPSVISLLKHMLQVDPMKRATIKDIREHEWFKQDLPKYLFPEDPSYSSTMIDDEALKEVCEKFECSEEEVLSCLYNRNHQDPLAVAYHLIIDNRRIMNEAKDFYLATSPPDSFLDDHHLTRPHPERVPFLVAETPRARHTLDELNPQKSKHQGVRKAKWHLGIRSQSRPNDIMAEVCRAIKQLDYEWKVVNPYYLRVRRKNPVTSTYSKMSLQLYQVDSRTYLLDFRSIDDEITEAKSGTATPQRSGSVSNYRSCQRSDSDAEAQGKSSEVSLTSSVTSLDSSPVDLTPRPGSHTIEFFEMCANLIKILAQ
T1 sequence (Q9Y478 whole entry): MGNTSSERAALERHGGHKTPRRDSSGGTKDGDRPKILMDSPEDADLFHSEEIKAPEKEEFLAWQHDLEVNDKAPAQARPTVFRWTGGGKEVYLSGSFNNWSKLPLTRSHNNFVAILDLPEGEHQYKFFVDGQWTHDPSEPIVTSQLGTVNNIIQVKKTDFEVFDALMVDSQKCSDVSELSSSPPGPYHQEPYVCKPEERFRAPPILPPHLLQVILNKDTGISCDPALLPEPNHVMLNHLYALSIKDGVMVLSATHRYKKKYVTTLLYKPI
T1 sequence (P54619 whole entry partner): as the sequence (P54619 whole entry partner) above

In assay [1], `NC(=O)c1ccc(-c2ccc(-c3cc4c(CCC(=O)O)n[nH]c4cc3Cl)cc2)c(O)c1` [Example 6, 3-(5-(4′-Carbamoyl-2′-hydroxy-[1,1′-biphenyl]-4-yl)-6-chloro-1H-indazol-3-yl)propanoic acid] showed an EC50 of 6 nM and an Emax of 64%. Further, in assay [2], the EC50 was 4 nM and the Emax came out at 53%.

In assay [1], `CS(=N)(=O)c1ccc(-c2ccc(-c3cc4c(CCC(=O)O)n[nH]c4cc3Cl)cc2)cc1` (stereo not shown) [Example 24, 3-(6-chloro-5-(4′-(S-methylsulfonimidoyl)-[1,1′-biphenyl]-4-yl)-1H-indazol-3-yl)propanoic acid] had an EC50 of 19 nM and an Emax of 86%. In assay [2], this molecule registered an EC50 of 106 nM and a maximal effect (Emax) of 48%.

In assay [1], `COc1c(Cl)ccc(-c2ccc(-c3cc4c(CCC(=O)O)n[nH]c4cc3Cl)cc2)c1O` [Example 28, 3-(6-chloro-5-(4′-chloro-2′-hydroxy-3′-methoxy-[1,1′-biphenyl]-4-yl)-1H-indazol-3-yl)propanoic acid] showed an EC50 of 277 nM and a maximal effect (Emax) of 73%. Moreover, in assay [2], the midpoint of the response, the EC50, lay at 136 nM and the Emax was 63%.

Turning to `Cc1ccc(-c2ccc(-c3cc4c(CCC(=O)O)n[nH]c4cc3Cl)cc2)c(O)c1` [Example 34, 3-(6-chloro-5-(2′-hydroxy-4′-methyl-[1,1′-biphenyl]-4-yl)-1H-indazol-3-yl)propanoic acid], in assay [1], the EC50 was 228 nM and the Emax amounted to 68%. In assay [2], the midpoint of the response, the EC50, lay at 197 nM and the maximum response (Emax) came out at 50%.

As to `O=C(O)CCc1n[nH]c2cc(Cl)c(-c3ccc(-c4ccc(OC(F)F)cc4O)cc3)cc12` [Example 69, 3-(6-chloro-5-(4′-(difluoromethoxy)-2′-hydroxy-[1,1′-biphenyl]-4-yl)-1H-indazol-3-yl)propanoic acid], in assay [1], the response was half-maximal at 480 nM (EC50) and the Emax worked out at 73%. In addition, in assay [2], the EC50 is 1150 nM and the Emax stood at 58%.

For the molecule `O=C(O)CCc1n[nH]c2cc(Cl)c(-c3ccc(-c4ccc5c(c4)CS(=O)(=O)C5)cc3)cc12` [Example 54, 3-(6-chloro-5-(4-(2,2-dioxido-1,3-dihydrobenzo[c]thiophen-5-yl)phenyl)-1H-indazol-3-yl)propanoic acid], the EC50 worked out at 217 nM in assay [1] and 1010 nM in assay [2]. In addition, the values for the Emax in assay [1] and in assay [2] were 61% and 64%, respectively.

Turning to `COc1ccc(-c2ccc(-c3cc4c(CCC(=O)O)n[nH]c4cc3Cl)cc2)c(O)c1OC` [Example 52, 3-(6-chloro-5-(2′-hydroxy-3′,4′-dimethoxy-[1,1′-biphenyl]-4-yl)-1H-indazol-3-yl)propanoic acid], the EC50 in assay [1] is 6 nM; in assay [2], 19 nM. Besides, the results for the Emax in assay [1] and in assay [2] were 85% and 65%, respectively.

In assay [1], `Cc1cccc(O)c1-c1ccc(-c2cc3c(CCCC(=O)O)n[nH]c3cc2Cl)cc1` [Example 75, 4-(6-chloro-5-(2′-hydroxy-6′-methyl-[1,1′-biphenyl]-4-yl)-1H-indazol-3-yl)butanoic acid] returned an EC50 of 74 nM and an Emax of 75%. In assay [2], this molecule registered an EC50 of 229 nM and a maximum response (Emax) of 63%.

As for `COc1ccc(Cl)c(-c2ccc(-c3cc4c(CCC(=O)O)n[nH]c4cc3Cl)cc2)c1O` [Example 14, 3-(6-chloro-5-(6′-chloro-2′-hydroxy-3′-methoxy-[1,1′-biphenyl]-4-yl)-1H-indazol-3-yl)propanoic acid], in assay [1], the midpoint of the response, the EC50, lay at 45 nM and the maximal effect (Emax) is 74%. Besides, in assay [2], the EC50 is 72 nM and the Emax amounted to 65%.

In the case of `COc1cc(O)c(-c2ccc(-c3cc4c(CCC(=O)O)n[nH]c4cc3Cl)cc2)c(Cl)c1` [Example 49, 3-(6-chloro-5-(2′-chloro-6′-hydroxy-4′-methoxy-[1,1′-biphenyl]-4-yl)-1H-indazol-3-yl)propanoic acid], the EC50 in assay [1] turned out to be 96 nM; in assay [2], 325 nM. Besides, the Emax in assay [1] turned out to be 74%; in assay [2], 61%.

In assay [1], `O=C(O)CCc1n[nH]c2cc(Cl)c(-c3ccc(-c4cccc(Cl)c4O)cc3)cc12` [Example 45, 3-(6-chloro-5-(3′-chloro-2′-hydroxy-[1,1′-biphenyl]-4-yl)-1H-indazol-3-yl)propanoic acid] had an EC50 of 123 nM and an Emax of 82%. In assay [2], this molecule displayed an EC50 of 263 nM and an Emax of 66%.

As to `Cc1cncc(O)c1-c1ccc(-c2cc3c(CCC(=O)O)n[nH]c3cc2Cl)cc1` [Example 27, 3-(6-chloro-5-(4-(3-hydroxy-5-methylpyridin-4-yl)phenyl)-1H-indazol-3-yl)propanoic acid], the EC50 in assay [1] came to 7 nM; in assay [2], 125 nM. Moreover, the values for the Emax in assay [1] and in assay [2] were 87% and 62%, respectively.

In assay [1], `CN(C)C(=O)c1ccc(-c2ccc(-c3cc4c(CCC(=O)O)n[nH]c4cc3Cl)cc2)c(O)c1` [Example 12, 3-(6-chloro-5-(4′-(dimethylcarbamoyl)-2′-hydroxy-[1,1′-biphenyl]-4-yl)-1H-indazol-3-yl)propanoic acid] displayed an EC50 of 16 nM and an Emax of 72%. In assay [2], this molecule showed an EC50 of 62 nM and an Emax of 56%.

In assay [1], `COc1cc(F)cc(-c2ccc(-c3cc4c(CCC(=O)O)n[nH]c4cc3Cl)cc2)c1O` [Example 42, 3-(6-chloro-5-(5′-fluoro-2′-hydroxy-3′-methoxy-[1,1′-biphenyl]-4-yl)-1H-indazol-3-yl)propanoic acid] displayed an EC50 of 291 nM and an Emax of 68%. In assay [2], this molecule yielded a 50% effective concentration (EC50) of 244 nM and an Emax of 64%.

In assay [1], `O=C(O)CCc1n[nH]c2cc(Cl)c(-c3ccc(-c4ccc5c(c4O)OCC5)cc3)cc12` [Example 68, 3-(6-chloro-5-(4-(7-hydroxy-2,3-dihydrobenzofuran-6-yl)phenyl)-1H-indazol-3-yl)propanoic acid] gave an EC50 of 29 nM and a maximal effect (Emax) of 71%. Further, in assay [2], the response was half-maximal at 19 nM (EC50) and the Emax is 69%.

Turning to `O=C(O)CSc1n[nH]c2cc(Cl)c(-c3ccc(-c4ccccc4O)cc3)cc12` [Example 11, 2-((6-chloro-5-(2′-hydroxy-[1,1′-biphenyl]-4-yl)-1H-indazol-3-yl)thio)acetic acid], the values for the EC50 in assay [1] and in assay [2] were 53 nM and 60 nM, respectively. For the same molecule, the values for the Emax in assay [1] and in assay [2] were 62% and 44%, respectively.

As for `COc1ccc(C)c(-c2ccc(-c3cc4c(CCCC(=O)O)n[nH]c4cc3Cl)cc2)c1O` [Example 78, 4-(6-chloro-5-(2′-hydroxy-3′-methoxy-6′-methyl-[1,1′-biphenyl]-4-yl)-1H-indazol-3-yl)butanoic acid], in assay [1], the EC50 came to 93 nM and the maximal response (Emax) came to 78%. Also, in assay [2], the EC50 stood at 87 nM and the maximum response (Emax) was 66%.

In assay [1], `Cc1cccc(O)c1-c1ccc(-c2cc3c(CCC(=O)O)n[nH]c3cc2Cl)cc1` [Example 15, 3-(6-chloro-5-(2′-hydroxy-6′-methyl-[1,1′-biphenyl]-4-yl)-1H-indazol-3-yl)propanoic acid] returned an EC50 of 35 nM and an Emax of 75%. In assay [2], this molecule came in with a half-maximal effective concentration (EC50) of 76 nM and an Emax of 52%.

`O=C(O)CCc1n[nH]c2cc(Cl)c(-c3ccc(-c4ccc(F)cc4O)cc3)cc12` [Example 47, 3-(6-chloro-5-(4′-fluoro-2′-hydroxy-[1,1′-biphenyl]-4-yl)-1H-indazol-3-yl)propanoic acid]: in assay [1], the EC50 is 113 nM and the Emax worked out at 83%. In assay [2], this molecule displayed an EC50 of 282 nM and an Emax of 59%.

With `CNC(=O)c1ccc(-c2ccc(-c3cc4c(CCC(=O)O)n[nH]c4cc3Cl)cc2)cc1` [Example 76, 3-(6-chloro-5-(4′-(methylcarbamoyl)-[1,1′-biphenyl]-4-yl)-1H-indazol-3-yl)propanoic acid], the EC50 in assay [1] stood at 6 nM; in assay [2], 13 nM. Further, the Emax in assay [1] was found to be 67%; in assay [2] it was 53%.

As for `O=C(O)CCc1n[nH]c2cc(Cl)c(-c3ccc(-c4ccc(C(=O)O)cc4O)cc3)cc12` [Example 36, 4′-(3-(2-carboxyethyl)-6-chloro-1H-indazol-5-yl)-2-hydroxy-[1,1′-biphenyl]-4-carboxylic acid], the values for the EC50 in assay [1] and in assay [2] were 45 nM and 200 nM, respectively. Further, the results for the Emax in assay [1] and in assay [2] were 68% and 49%, respectively.

`O=C(O)CCc1n[nH]c2cc(Cl)c(-c3ccc(-c4ccc(Cl)cc4O)cc3)cc12` [Example 64, 3-(6-chloro-5-(4′-chloro-2′-hydroxy-[1,1′-biphenyl]-4-yl)-1H-indazol-3-yl)propanoic acid]: in assay [1], the EC50 is 203 nM and the Emax was determined as 76%. In addition, in assay [2], the response was half-maximal at 617 nM (EC50) and the Emax turned out to be 48%.
